The values that follow come from US20160279108A1, “TARGETED MTOR INHIBITORS” (UNIVERSITY OF KANSAS, priority 2015, published 2016).

For data set [1] the following is noted: Stak (US 20110201639 A1) for tacrolimus; cited from earlier work.
Data set [2] relates to 4T1.2neu breast cancer. Briefly: Animal survival and tumor suppression study. The settings on record: for median survival time: 10 mg/kg equivalent rapamycin once per week for 3 weeks, free rapamycin i.p., HA-L-Rapa s.c., control 17 days.
For data set [3] the following is noted: mice, 2 mg/kg; cited from earlier work.
For data set [4] the following is noted: i.v., rats, own previous studies; cited from earlier work.
The nature of data set [5]: Tissue distribution in tumor-bearing mice. Format: in vivo, BALB/c mice. The settings on record: for concentration at 12 h: female, BALB/c, mouse, intraperitoneal, 10 mg/kg. The method, then: Drug tissue distribution was determined in female BALB/c mice (n=5). Tissue samples (50 mg) in 500 μL PBS were homogenized using a Tissue Tearor (BioSpec Products, Inc., Bartivesville, Okla.). The homogenized tissue was mixed with 250 μL ZnSO4 and 500 μL methanol. The mixture solution was centrifuged and the supernatant was analyzed by LC/MS.
In the tissue distribution study, BLAB/c mice were administered the drugs 12 h before being euthanized. Major organs (liver, kidneys, hear, spleen, lungs, brain, muscle), tumor and lymph nodes were excised and lightly washed with PBS. The organs were stored at −80° C. until analyzed by LC/MS.

The conditions of data set [6]: cited from earlier work.
The nature of data set [7]: Pharmacokinetics study in rats. Format: in vivo, Sprague-Dawley rats. As for the experimental part:
Whole blood was withdrawn (100 μL) from the tail vein at 0 min, 5 min, 30 min, 1 h, 2 h, 4 h, 6 h, 12 h, 24 h and 48 h after dosing and placed in heparinized tubes (BD Vacutainer® Lithium Heparin 37 USP unit, BD Franklin Lakes, N.J.). The whole blood was centrifuged at 15,000×g for 10 min, and the plasma was frozen at −80° C. until analyzed. The animal use statement was approved by the University of Kansas Institutional Animal Care and Use Committee. Plasma samples and stander curves were prepared using a procedure reported previously.

Data set [8] deals with MDA-MB-468 cells. The settings on record: 10 μM.
Protocol: Breast cancer cells, MDA-MB-468, were seeded in a 12-well plate at the concentration of 50,000 cells/well in 1 mL of growth medium. After 12 h incubation, 10 μL of human anti-CD44 antibody was added to each well.
For data set [9], the system named is MDA-MB-468 cells. The settings on record: MDA-MB-468 with H-CAM blocking of CD44, p=0.065.
Protocol: Breast cancer MDA-MB-468 cells were maintained in Dulbecco's modified eagle medium supplemented with 10% fetal bovine serum (Hyclone Laboratory Inc., Logan, Utah). Cells were plated in white 96-well flat-bottomed plates at the concentration of 5,000 cells/well in 90 μL of growth medium. […] Hanks' solution and 10% trichloroacetic acid (TCA) were used as negative and positive control, respectively. The medium was refreshed 8 h after treatment. After 72 h post-treatment, resazurin blue (5 μM) was added and the resorufin product was measured with a fluorophotometer using an excitation wavelength of 550 nm and an emission wavelength of 590 nm.
The conditions of data set [10]: in vivo; cited from earlier work.
[11] abbreviates: female, Sprague-Dawley, rat, plasma, ip, 10 mg/kg.

By mortality is commonly meant the percentage killed. Usually AUC(0-inf) stands for total exposure, with the tail of the curve extrapolated. Usually Cmax stands for the peak of the concentration-time curve. For orientation: half-life means how long it takes for the measured level to halve. A high value points to slow decline. On to `CO[C@H]1C[C@@H]2CC[C@@H](C)[C@@](O)(O2)C(=O)C(=O)N2CCCC[C@H]2C(=O)O[C@H]([C@H](C)C[C@@H]2CC[C@@H](O)[C@H](OC)C2)CC(=O)[C@H](C)/C=C(\C)[C@@H](O)[C@@H](OC)C(=O)[C@H](C)C[C@H](C)/C=C/C=C/C=C/1C` [rapamycin], for which the “stability at alkaline pH conditions” value in data set [1] was “degrade rapamycin rapidly in hours or less”. Besides, the median survival time in data set [2] came to 15 days. The “skin finding after subcutaneous administration” value in data set [3] was “skin ulceration”. The mortality in [4] is 40%. For the same compound, the concentration at 12 h in data set [5] (brain) was 108 ± 37.4 ng/g; in data set [5] (heart), 441 ± 81.6 ng/g; in data set [5] (kidneys), 469 ± 27.3 ng/g; in data set [5] (liver), 379 ± 40.6 ng/g; in data set [5] (lungs), 618 ± 299 ng/g; in data set [5] (lymph nodes), 705 ± 116 ng/g. Also, the concentration at 12 h in data set [5] (muscle) was 316 ± 154 ng/g; in [5] (spleen) it was 183 ± 66.5 ng/g. Moreover, the Mean concentration of rapamycin in Tumor in data set [5] (mice, 12 h post 10 mg/kg equivalent rapamycin, i.p. (free rapamycin), s.c. (HA-L-Rapa), Mean ± SD, n=5) turned out to be 1240 ± 256 ng/g. Further, the “findings after i.v. administration” value in [6] is “injury (swelling and focal lesion) at the injection site, lymphoid atrophy and periarterial edema in the heart, liver”. Moreover, the AUC(0-inf) in data set [7] (setting [11]) stood at 2360 ± 460 ng·h/mL. Also, in [7] (setting [11]), the concentration peaked (Cmax) at 173 ± 69.1 ng/mL. In data set [7] (setting [11]), this compound gave a half-life of 10.4 ± 3.76 h. For the same compound, in data set [7] (rats, free rapamycin i.p., HA-L-Rapa s.c., 10 mg/kg equivalent rapamycin, Mean ± SD, n=3), the Vd is 37.68 ± 15.49 L/kg. For the same compound, the CI in data set [7] (rats, free rapamycin i.p., HA-L-Rapa s.c., Mean ± SD, n=3) was found to be 70.5 ± 15.8 mL/min/kg.

As to `C=CC[C@@H]1/C=C(\C)C[C@H](C)C[C@H](OC)[C@H]2O[C@@](O)(C(=O)C(=O)N3CCCC[C@H]3C(=O)O[C@H](/C(C)=C/[C@@H]3CC[C@@H](O)[C@H](OC)C3)[C@H](C)[C@@H](O)CC1=O)[C@H](C)C[C@@H]2OC` [tacrolimus], the “stability at alkaline pH conditions” value in data set [1] is on record as “stable at alkaline pH conditions for over a week”.

As to “HA-Rapamycin-42-(3′-amino-4′-methoxy)benzoate [HA-L-Rapa]”, in [8] (CD44 blocked with H-CAM, p=0.13), the “rapamycin uptake compared to the free drug” value is “no difference”. The “drug uptake compared to free rapamycin” value in data set [8] (CD44 positive cells, p=0.012) is 3.2 times. In addition, the “tumor volume on day 20 compared with the control group” value in [2] (10 mg/kg equivalent rapamycin) was “significant decrease”. Also, in data set [2], the median survival time is listed as 22 days. Also, the “lung metastases observed at necropsy (animals of group)” value in data set [2] (4T1.2neu model, n=5) was 1/5. Besides, the “survival compared with control” value in data set [2] (BALB/c mice with 4T1.2neu breast cancer) is reported as “significantly longer survival”. Also, in [2] (mammary carcinoma bearing mice), the “incidence of ulcerated tumor” value is on record as “diminished the incidence of ulcerated tumor” and the “tumor growth compared to the non-treatment group” value is recorded as “significantly inhibited tumor growth”. For the same compound, the “cell viability compared to the free drug” value in [9] is “no significant difference”.

Turning to hyaluronic acid, the turnover half-life in data set [10] is 12 to 72 h.
